{
  "source": "patent US20260240975A1",
  "about": "“VALIDATED HPV16-DERIVED S[…]” (Deutsches Krebsforschungszentrum Stiftung des öffentlichen …, priority 2023, published 2026)",
  "key": {"[1]": {"tested_on": "HPV16-positive cells", "experiment": "Cytotoxicity assay (VITAL FR / live-cell imaging) with peptide-specific CD8+ T cells", "type": "cell-based, human", "parameters": "key: +: cytotox: Ability of peptide-specific T cells to kill HPV16-positive cells", "procedure": "The flow cytometry based VITAL FR cytotoxicity assay was used as published by Stanke et al. (Stanke et al., 2010) to assess whether peptide-specific T cells are able to specifically kill HPV-transformed target cells. Briefly, two HLA-A2^+ cell lines, a HPV16-negative (HPV16^−) control cell line (C33A) and a HPV16-positive (HPV16^+) target cell line (CaSki) were fluorescently labeled with either FarRed or CFSE and were co-incubated with peptide-specific CD8^+ T cells as effector cells. After 48 h co-incubation, the fluorescently labeled cells were analyzed by flow cytometry to determine the surviving cells and calculate the specific cytolytic function of the effector cells by the ratio of target and control cells.\nCaSki and C33A cells were fluorescently labeled with CFSE and FarRed, respectively. Cells of both cell lines were harvested and resuspended in plain RPMI medium at a concentration of 1×10^6 cells/mL. For cell labeling, 5 μM CSFE were added to CaSki cells and 0.25 μM FarRed were added to C33A cells. The cells were incubated at 37° C. and the reaction was stopped after 10 min by addition of 50 mL RPMI with 10% FBS. The cells were centrifuged at 300 xg for 5 min, the supernatant was discarded and the cells were resuspended in their cell culture medium. The labeled cells were seeded in T25 cell culture flasks with 1-2×10^6 cells/flask.\nOn the next day, the labeled CaSki and C33A as well as the epitope-specific semi-long-term T cell lines (described in 1.6) were harvested. CD8^+ T cells were isolated from the epitope-specific semi-long-term T cell lines using the MACS CD8^+ T cell isolation kit (Miltenyi Biotec) according to the manufacturer's protocol for LS columns. The CD8^+ T cells were resuspended in T cell medium and added to wells of a F-bottom 96-well plate in serial dilutions to achieve triplicates of 6×10^4, 3×10^4, 1.5×10^4, 0.75×10^4 and 0.375×10^4 cells per well. The CaSki and C33A cells were mixed 1:1 in T cell medium and 3×10^3 cells were added to each well containing T cells. Thereby effector:target (E:T) ratios of […] were achieved. Additionally, triplicates of mixed target cells without T cells were seeded, which is referred to as E:T 0. After 48 h incubation at 37° C., 5% CO2, the cells were harvested and analyzed at a BD FACS Canto™ II analyzer using the BD FACS Diva Software Version 6. The obtained data were analyzed with the FlowJo software Version 10 by applying the same gating strategy to all samples. Subsequently, the equations (1) and (2) given below were applied in Excel (Microsoft Office 2016) to calculate specific killing.\nSemi long-term T cell lines were set up to obtain high numbers of T cells, which are required for the analysis of epitope specific cytotoxic T cell responses in VITAL FR cytotoxicity assays. Autologous DCs were generated from PBMCs as described in 1.7 and loaded with the desired HPV16 peptide. PBMCs of the same donor were thawed and resuspended in T cell medium supplemented with rhIL-7 (10 ng/mL) and rhIL-15 (20 ng/mL). 1×10^7 PBMCs/well were seeded to a 24-well plate in a total volume of 1 mL/well. Peptide-loaded DCs were added in a ratio of 50:1 (PBMCs:DCs) in 1 mL rhIL-7 (10 ng/mL) and rhIL-15 (20 ng/mL) supplemented T cell medium to achieve a final volume of 2 mL. The cell cultures were fed with rhIL-2 (final concentration: 40 U/mL) every other day. If the medium turned yellow the feeding was combined with a half medium change with 1 mL fresh IL-2 supplemented T cell medium. After eight days, the peptide stimulation with peptide-loaded DCs was repeated and cultivation was continued. On day 15, the T cell lines were harvested and used for CD8^+ T cell isolation and cytotoxicity assays.\nIn addition to the VITAL FR assay described herein above, a newly established live-cell imaging-based cytotoxicity assay was applied. […]"}, "[2]": {"tested_on": "short-term antigen-specific T cell lines generated from PBMCs", "parameters": "key: +: ELISPOT: Immungenicity of the peptide shown by IFN-gamma ELISPOT analysis; * Highlights data from published resources; +*: * Highlights data from published resources", "conditions": "marked * (published resources), cited from earlier work"}, "[3]": {"tested_on": "short-term antigen-specific T cell lines generated from PBMCs", "experiment": "Interferon-γ ELISpot assay on short-term T cell lines", "type": "cell-based, human", "parameters": "key: +: ELISPOT: Immungenicity of the peptide shown by IFN-gamma ELISPOT analysis; * Highlights data from published resources; +*: * Highlights data from published resources"}, "[4]": {"tested_on": "peptide-specific T cell cultures", "experiment": "T cell phenotyping and intracellular cytokine staining (flow cytometry)", "type": "cell-based, human", "parameters": "key: +: cytokine: Immunogenicity of the peptide shown by intracellular cytokine staining (IFN-gamma, TNF-alpha)", "conditions": "IFN-gamma, TNF-alpha"}},
  "note": "Read-outs that look alike come from different tables or passages of the source. No end group written: not given here.",
  "data": [
    {"substance": "YMLDLQPE [compound 13]", "values": [
      {"measurement": "cytotox", "setting": "[1]; HLA restriction A02", "result": "+"}
    ]},
    {"substance": "LLMGTLGIVCP [compound 25]", "values": [
      {"measurement": "cytotox", "setting": "[1]; HLA restriction A02", "result": "+"}
    ]},
    {"substance": "LMGTLGIVCPI [compound 12]", "values": [
      {"measurement": "cytotox", "setting": "[1]; HLA restriction A02", "result": "+"}
    ]},
    {"substance": "2 (HGDTPTLHEY; Human papillomavirus 16) [compound 2]", "values": [
      {"measurement": "ELISpot", "setting": "[2]; HLA restriction A01", "result": "+*"}
    ]},
    {"substance": "RLCVQSTHV [compound 11]", "values": [
      {"measurement": "cytotox", "setting": "[1]; HLA restriction A02", "result": "+"}
    ]},
    {"substance": "1 (ISEYRHYCY; Human papillomavirus 16) [compound 1]", "values": [
      {"measurement": "ELISpot", "setting": "[2]; HLA restriction A01", "result": "+*"}
    ]},
    {"substance": "61 (RAHYNIVTF; Human papillomavirus 16) [compound 61]", "values": [
      {"measurement": "ELISpot", "setting": "[2]; HLA restriction B07", "result": "+*"},
      {"measurement": "ELISpot", "setting": "[3]; HLA restriction B15", "result": "+"}
    ]},
    {"substance": "87 (LQPETTDLY; Human papillomavirus 16) [compound 87]", "values": [
      {"measurement": "cytokine", "setting": "[4]; HLA restriction B15", "result": "+"},
      {"measurement": "ELISpot", "setting": "[2]; HLA restriction B15", "result": "+*"}
    ]},
    {"substance": "62 (TFCCKCDSTL; Human papillomavirus 16) [compound 62]", "values": [
      {"measurement": "cytotox", "setting": "[1]; HLA restriction A24", "result": "+"},
      {"measurement": "ELISpot", "setting": "[3]; HLA restriction A24", "result": "+"}
    ]},
    {"substance": "43 (AVCDKCLKFY; Human papillomavirus 16) [compound 43]", "values": [
      {"measurement": "cytokine", "setting": "[4]; HLA restriction A03", "result": "+"},
      {"measurement": "cytokine", "setting": "[4]; HLA restriction A11", "result": "+"},
      {"measurement": "cytokine", "setting": "[4]; HLA restriction B15", "result": "+"},
      {"measurement": "ELISpot", "setting": "[2]; HLA restriction A11", "result": "+*"},
      {"measurement": "ELISpot", "setting": "[3]; HLA restriction A03", "result": "+"},
      {"measurement": "ELISpot", "setting": "[3]; HLA restriction B15", "result": "+"}
    ]},
    {"substance": "IRTLEDLLMGT [compound 33]", "values": [
      {"measurement": "cytotox", "setting": "[1]; HLA restriction A02", "result": "+"}
    ]},
    {"substance": "TTIHDIILECV [compound 30]", "values": [
      {"measurement": "cytotox", "setting": "[1]; HLA restriction A02", "result": "+"}
    ]},
    {"substance": "77 (TPTLHEYML; Human papillomavirus 16) [compound 77]", "values": [
      {"measurement": "ELISpot", "setting": "[2]; HLA restriction B07", "result": "*"}
    ]},
    {"substance": "MGTLGIVCPI [compound 14]", "values": [
      {"measurement": "cytotox", "setting": "[1]; HLA restriction A02", "result": "+"}
    ]},
    {"substance": "34 (CVYCKQQLLR; Human papillomavirus 16) [compound 34]", "values": [
      {"measurement": "ELISpot", "setting": "[2]; HLA restriction A11", "result": "*"},
      {"measurement": "ELISpot", "setting": "[3]; HLA restriction A03", "result": "+"}
    ]}
  ]
}
